What was measured:
Type in all cases: cell-based, human
PD-L1 RNA expression = PD-L1 RNA expression by qRT-PCR in treated NSCLC cell lines (FIG. 3, 4A)
Procedure: (§1) NSCLC cell lines were procured from American Type Cell Culture (ATCC) or academic sources and cultured in RPMI 1640 medium supplemented with 10% fetal bovine serum (FBS) and 2 mM L-glutamine. Cells were detached for splitting and/or experimental analysis following a PBS wash and incubation with Accutase detachment medium (Sigma). Cells were treated with 0.1 mM trichostatin A (“TSA,” Sigma) and/or 1 ng/mL interferon gamma (IFNγ) for 24 hours and 1 mM 5-azacitidine-dC (5-aza-dC, Sigma), for 3 days qd (i.e., once a day) or 6 days q2d (i.e., every other day).
(§2) Buffer RLT Plus (Qiagen) was used to lyse the cells for RNA and DNA extraction from the same lysate using the AllPrep DNA/RNA Mini Kit (Qiagen). RNA expression was analyzed by microarray on the GeneChip Human Genome U133 Plus 2.0 Array (Affymetrix) by Asuragen, Inc, and by qPCR using TaqMan Gene Expression Assays (Life Technologies). Data was analyzed using Genomics Suite (Partek), Spotfire (TIBCO), JMP (SAS), and IPA (Ingenuity). DNA was analyzed on the INFINIUM® HumanMethylation450 BeadChip (Illumina). DNA was bisulfite-modified using the Zymo DNA Gold Methylation kit (Zymo Research) and amplified with bisulfite specific sequencing primers targeting the CD274 promoter region. PCR products were TA-subcloned and sequenced using standard methods (ABI). ABI sequence files were analyzed using BIQ Analyzer software (C. Bock).
Cells from each of the cell lines were exposed to one of five conditions: (1) no treatment; (2) treatment with 1 mM 5-azacitidine-dC (5-aza-dC, a DNA demethylation agent); (3) treatment with 0.1 mM trichostatin A (TSA, a class I and class II mammalian histone […]); (4) treatment with 1 ng/mL interferon gamma (IFNg); or (5) treatment with a combination of 5-aza-dC, TSA, and IFNg. PD-L1 RNA expression was then measured by qRT-PCR.

PD-L1 expression [1] = test: PD-L1 expression after 5-aza-dC treatment of the CGP NSCLC cell line panel (FIG. 6C, 6D)
Procedure: as §1, §2
NSCLC cell lines from the Cancer Genome Project (CGP) were used to create a scatter plot directly comparing smoothened CpG1 and CpG5 methylation (M-value) on the X axis and PD-L1 expression (RNA-seq, Log 2-count) on the Y axis. […] PD-L1 baseline expression in these cell lines is highly affected by the level of promoter methylation. The CGP cell lines analyzed in FIG. 6A were then categorized into three methylation groups: (1) low (i.e., low to no methylation at both CpG1 and CpG5), (2) intermediate (i.e., CpG1 or CpG5 site methylated), or (3) high (CpG1 and CpG5 both methylated). These groups were plotted on the X axis, with basal PD-L1 expression by RNA-seq plotted on the Y and median expression shown for each group. […] Group (1) (i.e., low) had the highest median PD-L1 expression, with Group (2) (i.e., intermediate) and Group (3) (i.e., high) methylation groups showing lower median PD-L1 expression.
The cell lines in the CPG NSCLC cell line panel were then treated with 5-aza-dC in order to the effect global demethylation would have on PD-L1 expression in a dataset with a larger number of cell lines. […] Additionally, two cell lines in this panel are known to have been raised from two separate samples from one patient, H1993 (low) and H2073 (intermediate).

STAT1 = test: Western blot of IFNg/JAK/STAT signaling pathway: STAT1
Procedure: (§3) Protein lysates were generated using Cell Extraction Buffer (Life Technologies), supplemented with SigmaFAST Protease Inhibitor Tablets (Sigma) and Phosphatase Inhibitor Cocktail 1 and 2 (Sigma). Lysates centrifuged at 20,000×g for 10 minutes at 4° C., and the supernatants were then removed for analysis by Western Blot (WB). Samples were treated with NuPage Novex LDS and SRA Buffers (Life Technologies) and loaded onto a Bis-Tris Gel (Life Technologies) alongside SeeBlue Plus2 molecular weight standard (Life Technologies). Gels were transferred to nitrocellulose membranes using the iBlot system (Life Technologies) and then blocked with Odyssey Blocking Buffer (LI-COR) for 1 hour at room temperature. Gels were stained with antibodies against human PD-L1 (in-house), β-actin (Sigma); p/t STAT1, p-STAT3-Y705, p-STAT3-5727, and t-STAT3 (all Cell Signaling) diluted in Odyssey Blocking Buffer+0.01% Tween-20. Primary antibodies were detected secondary antibodies from LI-COR in Odyssey Blocking Buffer+0.01% Tween-20+0.001% SDS and analyzed on the Odyssey CLx system (LI-COR).
Next, western blots were performed to determine whether the IFNg/JAK/STAT signaling pathway plays a role in the IFNg-mediated induction of PD-L1 transcript and protein levels in A427, H322T, H292, and H358. […]

STAT3 = test: Western blot of IFNg/JAK/STAT signaling pathway: STAT3
Procedure: as §3
Next, western blots were performed to determine whether the IFNg/JAK/STAT signaling pathway plays a role in the IFNg-mediated induction of PD-L1 transcript and protein levels in A427, H322T, H292, and H358. Briefly, cells from A427, H322T, H292, and H358 were either (a) untreated; (b) treated with IFNg for 30 minutes; or (c) treated with IFNg for 24 hours. The cells were then processed into protein lysates and run out on gels, blotted and probed with the following antibodies: (1) anti-phospho-STAT1; (2) anti-total-STAT1: (3) anti-phospho-STAT3-Y705; (4) anti-phospho-STAT3-S727; (5) anti-total-STAT3; and (6) β-actin (loading control). […] STAT3 was further activated by the mTOR and MAPK pathways at S727.
Next, the relationship between PD-L1 promoter methylation and the IFNg/JAK/STAT pathway was investigated in A427 and H358 using siRNA. […] In order to determine which STAT was most crucial for PD-L1 expression in the context of methylation, cells from each cell line were dosed with (1) no siRNA; (2) Scrambled control; (3) siSTAT1; (4) siSTAT3; (5) IFNg, or (6) siSTAT1, siSTAT3, and IFNg.

PD-L1 protein expression = test: Surface PD-L1 protein expression by FACS after IFNg treatment (FIG. 4A)
Procedure: as §1
For FACS analysis, cells were detached then washed twice in FBS Staining Buffer (BD Biosciences). Cells were then stained with either PE-conjugated anti-human PD-L1 or isotype control (BD Biosciences) and then washed and analyzed on the FACSCanto II Analyzer (BD Biosciences).
PD-L1 protein expression loosely correlated with RNA expression in this subset of cell lines, both at baseline and following IFNg stimulation. […] In the A427 cell line, PD-L1 protein expression remained low. In the H292 and H358 cell lines, PD-L1 protein expression increased 3-4 fold, and in H322T, PD-L1 protein expression increased more than 48-fold as compared to baseline levels. […] As discussed above, baseline levels of PD-L1 protein in H322T were low.

PD-L1 expression [2] = test: PD-L1 expression after IFNg and/or STAT1 and STAT3 siRNA knockdown in A427 and H358 (FIG. 4C); details: H358 (unmethylated)
Procedure: as §3
Next, the relationship between PD-L1 promoter methylation and the IFNg/JAK/STAT pathway was investigated in A427 and H358 using siRNA. […]

[3] = system: STAT3 near CpG1 in the PD-L1 promoter; test: ChIP-Seq: binding of STAT3 near CpG1 in the PD-L1 promoter; details: H358, methylation at PD-L1 promoter LOW; IFNγ stimulation
Procedure: (§4) NSCLC cell lines were grown to the proper confluency, and treated cells were fixed with 1% formaldehyde for 15 min and quenched with 0.125 M glycine. Chromatin was isolated by the addition of lysis buffer and disruption with a Dounce homogenizer. Lysates were sonicated, and the DNA was sheared to an average length of 300-500 bp. Genomic DNA (Input) was prepared by treating aliquots of chromatin with RNase, proteinase K, and heat for de-crosslinking. Treatment was followed by ethanol precipitation. Pellets of genomic DNA were resuspended and the resulting DNA was quantified on a NanoDrop spectrophotometer. Extrapolation to the original chromatin volume allowed quantitation of the total chromatin yield.
(§5) An aliquot of chromatin (30 μg) was pre-cleared with protein A agarose beads (Invitrogen). […]
(§6) Illumina sequencing libraries were prepared from the ChIP and Input DNAs by the standard consecutive enzymatic steps of end-polishing, dA-addition, and adaptor ligation. After a final PCR amplification step, the resulting DNA libraries were quantified and sequenced on HiSeq 2500 or NexSeq 500. Sequences (50 nt reads, single end or 75 nt reads, single end) were aligned to the human genome (hg19) using the BWA algorithm. […] Peak locations were determined using the MACS algorithm (v1.4.2.) with a cutoff of pvalue=1×10^−7. […]

[4] = system: STAT1 near CpG1 in the PD-L1 promoter; test: ChIP-Seq: binding of STAT1 near CpG1 in the PD-L1 promoter; details: H358, methylation at PD-L1 promoter LOW; IFNγ stimulation
Procedure: as §4, §5, §6

[5] = A427 following stimulation with IFNg (FIG. 4C)

## Nc1ncn([C@H]2C[C@H](O)[C@@H](CO)O2)c(=O)n1 [5-aza-dC, 5-azacitidine-dC]
PD-L1 RNA expression; A427 (high methylation), 3 days of 5-aza-dC treatment
  PD-L1 RNA expression: increased
PD-L1 RNA expression; H322T (medium methylation), 3 days of 5-aza-dC treatment
  PD-L1 RNA expression: increased
PD-L1 RNA expression; H661 (high methylation at CpG1 and CpG5), 3 days of 5-aza-dC treatment
  PD-L1 RNA expression: increased
PD-L1 RNA expression; LXFL529 (high methylation), 3 days of 5-aza-dC treatment
  PD-L1 RNA expression: increased
PD-L1 expression [1]; CGP NSCLC cell line panel treated with 5-aza-dC
  PD-L1 expression: significantly induced
PD-L1 expression [1]; H1993 (low methylation) following 5-aza-dC treatment
  PD-L1 expression: no significant changes
PD-L1 expression [1]; H2073 (intermediate methylation) following 5-aza-dC treatment
  PD-L1 expression: significant PD-L1 expression induction
PD-L1 expression [1]; only Group (3) (high methylation) cell lines, 5-aza-dC
  induction of methylation-suppressed PD-L1 expression: significant induction

## CC(/C=C/C(=O)NO)=C\[C@@H](C)C(=O)c1ccc(N(C)C)cc1 [TSA, trichostatin A]
PD-L1 RNA expression; H322T only, of H661, LXFL529, A427, H2073, H322T, H1993, 0.1 mM TSA
  PD-L1 RNA expression: increase

## interferon gamma [IFNg, interferon gamma, used at 1 ng/mL to stimulate cells]
STAT1; [5]
  induction of activated STAT1: strong induction
STAT1; all four cell lines (A427, H322T, H292, H358) following IFNg stimulation
  p-STAT1 activation: robust
STAT3; [5]
  induction of activated STAT3: strong induction
STAT3; H292, following 30 min IFNg treatment
  p-STAT3-Y705: constitutively activated
STAT3; H358, before and after stimulation, early and late timepoints
  p-STAT3-5727 activation: did not show p-STAT3-5727 activation
STAT3; H358, by 24 hrs following IFNg stimulation
  p-STAT3-Y705: lost
STAT3; all cell lines except H358, by 24 hrs IFNg
  Activation of the JAK/STAT signaling pathway: observed
PD-L1 protein expression; A427 following IFNg treatment
  PD-L1 protein expression: remained low
PD-L1 protein expression; H292 following IFNg treatment, vs baseline
  PD-L1 protein expression increase: 3-4 fold
PD-L1 protein expression; H322T following IFNg treatment, compared to baseline levels
  PD-L1 protein expression increase: more than 48 fold
PD-L1 protein expression; H358 following IFNg treatment, vs baseline
  PD-L1 protein expression increase: 3-4 fold
PD-L1 protein expression; all four cell lines (A427, H322T, H292, H358) following IFNg treatment
  surface PD-L1 protein levels: increased
PD-L1 expression [2]
  PD-L1 expression: further induced
[3]
  Binding (chIP STAT3): bound and YES
PD-L1 RNA expression; A427 (high methylation) after IFNg stimulation
  PD-L1 RNA expression: 0.012 2^−DCt
PD-L1 RNA expression; A427, H322T, H292 and H358 stimulated with IFNg
  PD-L1 RNA induction: increases
PD-L1 RNA expression; H292 (low methylation) after IFNg stimulation
  PD-L1 RNA expression: 0.102 2^−DCt
PD-L1 RNA expression; H322T (medium methylation) after IFNg stimulation, baseline 0.018
  PD-L1 RNA expression: 1.356 2^−DCt
PD-L1 RNA expression; H358 (low methylation, high baseline) after IFNg stimulation
  PD-L1 RNA expression: no significant changes
[4]
  Binding (chIP STAT1): bind and YES
